Test results published in the NIST ThermoML archive (doi:10.1016/j.fluid.2011.11.022).

Details: Liquid; for mass density: Buoyancy - hydrostatic balance; for viscosity: Falling or rolling sphere viscometry

OCCOCCOCCO [triethylene glycol]
Details	mass density [kg/m3]	viscosity [mPa·s]
298.15 K, 98 kPa	1119.75	36.82
298.15 K, 49030 kPa	1143.46	55.23
298.15 K, 98060 kPa	1161.38	80.29
298.15 K, 147100 kPa	1175.25	114.4
298.15 K, 196130 kPa	1189.31	160.6
298.15 K, 245160 kPa	1200.31	221.8
312.96 K, 98 kPa	1109.61	19.03
313.05 K, 49030 kPa	1134.18	27.42
313.1 K, 98060 kPa	1152.38	38.28
313.18 K, 147100 kPa	1166.44	52.5
313.25 K, 196130 kPa	1180.35	70.68
313.26 K, 245160 kPa	1191.47	93.99
334.96 K, 98 kPa	1093.69	9.002
335.11 K, 49030 kPa	1119.52	12.45
335.14 K, 98060 kPa	1138.49	16.7
335.2 K, 147100 kPa	1153.34	22.03
335.25 K, 196130 kPa	1167.46	28.48
335.26 K, 245160 kPa	1178.87	36.37
349.25 K, 98 kPa	1082.8	5.945
349.94 K, 196130 kPa	1158.94	17.53
349.98 K, 49030 kPa	1109.01	8.061
349.98 K, 98060 kPa	1128.74	10.66
349.99 K, 245160 kPa	1170.6	21.84
350.03 K, 147100 kPa	1144.4	13.75
364.44 K, 98 kPa	1070.74	4.131
364.44 K, 49030 kPa	1098.31	5.537
364.72 K, 98060 kPa	1118.72	7.149
365.03 K, 147100 kPa	1135.26	9.021
365.07 K, 196130 kPa	1150.26	11.24
365.2 K, 245160 kPa	1162.2	13.8
413.73 K, 98 kPa	1028.27	1.679
414 K, 49030 kPa	1058.03	2.179
414.15 K, 98060 kPa	1082.77	2.836
414.27 K, 147100 kPa	1104.57	3.32
414.3 K, 196130 kPa	1122.57	3.995
414.43 K, 245160 kPa	1136	4.485
462.25 K, 98 kPa	981.42	0.997
462.26 K, 49030 kPa	1013.43	1.303
462.32 K, 98060 kPa	1044.24	1.614
462.41 K, 147100 kPa	1073.54	1.941
462.45 K, 196130 kPa	1096.35	2.3
462.58 K, 245160 kPa	1111.83	2.678

OCCOCCO [diethylene glycol]
Details	mass density [kg/m3]	viscosity [mPa·s]
293.15 K, 98 kPa	1117.04	36.52
293.15 K, 49030 kPa	1137.67	52.72
293.15 K, 98060 kPa	1158.16	74.16
293.15 K, 147100 kPa	1171	102.6
293.15 K, 196130 kPa	1184.89	139.9
293.15 K, 245160 kPa	1196.63	187.3
298.15 K, 98 kPa	1114.02	28.36
298.15 K, 49030 kPa	1135.41	40.36
298.15 K, 98060 kPa	1155.68	56.52
298.15 K, 147100 kPa	1168.88	77.16
298.15 K, 196130 kPa	1182.6	103.8
298.15 K, 245160 kPa	1194.5	138.3
312.6 K, 98 kPa	1104.9	15.25
312.62 K, 49030 kPa	1128.43	21.04
312.63 K, 98060 kPa	1148.18	28.2
312.67 K, 147100 kPa	1162.46	37.14
312.71 K, 196130 kPa	1175.84	48.29
312.75 K, 245160 kPa	1188.18	62.07
329.28 K, 98 kPa	1093.62	8.458
329.33 K, 98060 kPa	1138.99	14.73
329.33 K, 196130 kPa	1167.96	23.82
329.33 K, 245160 kPa	1180.84	29.61
329.38 K, 49030 kPa	1119.54	11.29
329.38 K, 147100 kPa	1154.56	18.83
344.99 K, 98 kPa	1082.27	5.34
345.2 K, 49030 kPa	1110.34	7.062
345.38 K, 98060 kPa	1129.61	8.969
345.47 K, 147100 kPa	1146.46	11.23
345.61 K, 196130 kPa	1160.06	13.81
345.78 K, 245160 kPa	1173.38	16.75
349.77 K, 98 kPa	1078.67	4.809
350.06 K, 49030 kPa	1107.36	6.25
350.13 K, 147100 kPa	1144.02	9.866
350.16 K, 98060 kPa	1126.71	7.904
350.4 K, 196130 kPa	1157.71	12.04
366.77 K, 98 kPa	1065.35	3.231
367.13 K, 49030 kPa	1096.31	4.124
367.26 K, 147100 kPa	1134.7	6.331
367.3 K, 98060 kPa	1115.94	5.145
367.37 K, 196130 kPa	1149.25	7.607
367.61 K, 245160 kPa	1163.2	9.086
413.65 K, 98 kPa	1024.3	1.409
413.8 K, 49030 kPa	1061.47	1.78
413.93 K, 98060 kPa	1083.55	2.153
414.01 K, 147100 kPa	1106.4	2.554
414.09 K, 196130 kPa	1124.99	2.987
414.29 K, 245160 kPa	1140.38	3.474
463.94 K, 98060 kPa	1043.8	1.218
463.99 K, 49030 kPa	1016.46	1.002
464.05 K, 98 kPa	973.11	0.789
464.09 K, 147100 kPa	1071.5	1.432
464.2 K, 196130 kPa	1097.41	1.655
464.37 K, 245160 kPa	1114.3	1.879

OCCO [1,2-ethanediol]
Details	mass density [kg/m3]	viscosity [mPa·s]
293.15 K, 98 kPa	1113.58	21.1
293.15 K, 49030 kPa	1134.56	26.75
293.15 K, 98060 kPa	1147.72	33.42
293.15 K, 147100 kPa	1159.85	41.19
293.15 K, 196130 kPa	1173.34	50.33
293.15 K, 245160 kPa	1185.44	60.43
312.46 K, 98 kPa	1100.88	9.925
312.46 K, 98060 kPa	1139.02	14.82
312.49 K, 49030 kPa	1123.04	12.24
312.49 K, 147100 kPa	1153.18	17.64
312.65 K, 245160 kPa	1179.39	24.69
334.87 K, 98 kPa	1085.13	4.949
335 K, 49030 kPa	1108.43	5.952
335.3 K, 98060 kPa	1127.05	7.031
335.35 K, 245160 kPa	1169.07	11.15
335.43 K, 147100 kPa	1143.57	8.234
335.45 K, 196130 kPa	1156.71	9.608
349.24 K, 98 kPa	1074.46	3.517
349.5 K, 49030 kPa	1098.33	4.157
349.65 K, 98060 kPa	1118.59	4.89
349.67 K, 147100 kPa	1136.69	5.688
349.8 K, 196130 kPa	1149.28	6.541
349.91 K, 245160 kPa	1161.91	7.454
365.7 K, 98 kPa	1061.7	2.39
366.1 K, 49030 kPa	1086.11	2.816
366.15 K, 98060 kPa	1107.99	3.302
366.37 K, 147100 kPa	1127.71	3.812
366.48 K, 196130 kPa	1139.94	4.344
366.8 K, 245160 kPa	1153.08	4.889
380.15 K, 98060 kPa	1098.24	2.558
380.82 K, 98 kPa	1049.47	1.872
381 K, 49030 kPa	1074.54	2.207
381.2 K, 196130 kPa	1131.06	3.345
381.27 K, 147100 kPa	1118.88	2.932
381.3 K, 245160 kPa	1145.04	3.784
395.55 K, 98 kPa	1037.07	1.419
395.6 K, 49030 kPa	1062.66	1.673
395.61 K, 98060 kPa	1086.68	1.936
395.65 K, 147100 kPa	–	2.214
395.73 K, 196130 kPa	1121.71	2.501
395.8 K, 245160 kPa	1136.57	2.811
421.7 K, 98 kPa	1013.93	0.96
421.71 K, 49030 kPa	1040.05	1.174
421.8 K, 98060 kPa	1065.2	1.345
421.9 K, 147100 kPa	1090.87	1.521
422 K, 196130 kPa	–	1.716
422 K, 245160 kPa	1120.22	1.898
464.4 K, 98 kPa	972.98	0.652
464.47 K, 98060 kPa	1025.08	0.97
464.53 K, 196130 kPa	1069.52	1.203
464.53 K, 245160 kPa	1090.75	1.356
464.54 K, 147100 kPa	1055.29	1.11
464.6 K, 49030 kPa	999.13	0.877
